Consider 1 molecule from publication PMC11793105, “A kalihinol analog disrupts apicoplast function and vesicular trafficking in P. falciparum malaria” (Science (New York, N.Y.), 2024).

Assay [1] has as its system P. falciparum 3D7 Clone / 3D7 Parental. Description: SYBR Green dose response, cloned 3D7 control/parental lines of the resistance selection. It is filed as cell-based, Plasmodium falciparum. The text has this: To assess whether we could use the DMSO melting curves previously established for […] by Dziekan et al. ([49]), we calculated the difference in melting temperatures (ΔTm) between our DMSO dataset and Dziekan’s for 364 proteins for which Tm values were confidently calculated by mineCETSA (table S6).
Fig. 4. […] (C) Schematic representation of the CRISPR-Cas9–based replacement strategy used to introduce a deletion of the targeted repeat regions in the PfSec13 gene. The insertion was achieved through overlap extension polymerase chain reaction (PCR) of fragments directly upstream and downstream of the target segment and subsequently formed by primer overlap extension PCR to replicate the desired deletion. […] (D) Predicted structure of the SEC13 protein highlighting the seven amino acid tandem repeat regions targeted for deletion (red). […] Data were analyzed using a Sigmoidal, 4PL (X represents concentration, n = 3, nonlinear regression, CI: 95%).
P. falciparum in vitro SYBR green fluorescence-based assays The anti-malarial activity of individual analogues were evaluated in-vitro against P. falciparum 3D7 (MRA-102, drug […]
green-I based fluorescence assay. Parasite growth rate and stages of development were determined via microscopy through Giemsa-stained smears of the cultures. Serial dilutions of the compounds ranging from 10uM-0.5nM were prepared in 96-well plates (Corning, Costar 3904) followed by […]
hematocrit added to each well. Eight wells were treated with vehicle control (DMSO) as control.
Plates were incubated in a modular incubation chamber (Billups-Rothenberg, Del Mar, CA)

Assay [2] concerns P. cynomolgi M/B strain parasites. Description: P. cynomolgi M/B strain drug assay (Hoechst flow cytometry). Format: cell-based. The note with it: Plasmodium cynomolgi, harvested 60 hours after initial dosing. The text has this: Detailed information on materials and methods is available in the supplementary materials. […] P. knowlesi assays were quantitatively measured by flow cytometry using SYBR Green I and Mitrotracker Deep Red, as previously described ([84], [85]), on a Beckman Coulter CytoFLEX. Nonhuman primate infections were required to generate P. cynomolgi M/B strain parasites for in vitro testing ([82], [86]). […]
reduction in weight, aggressive or unexpected animal behavior, animals are immediately euthanized with CO2. If no toxic effects are observed, mice are euthanized with CO2 at the end of […]
After infection, parasitemia was monitored daily by thick and thin blood films as previously described in Joyner et al. 2019 (86). […]
dosing. […] The experiment was repeated twice, and each concentration was assessed in […]
Data analysis The percentage of parasitized erythrocytes was determined by enumerating the number of Hoechst positive events out of the total erythrocytes after excluding non-single cells by forward and side scatter. The percent survival was calculated by averaging the parasitemia in the triplicates for each condition and then dividing by the parasitemia observed in the wells that did not receive drug treatment. The IC50 was then calculated using GraphPad Prism 9 (GraphPad […]
(In general: Flow cytometry measures light scatter and fluorescence of single cells or particles in a stream.)

Another assay relates to HEK293. Description: Human cell line activity, HEK293. It is filed as cell-based. The note with it: HEK293, read-out: IC50 (µM) HEK293.
For assay [3], the target named is hPXR (human pregnane X receptor) (Homo sapiens, UniProt O75469). The assay is described as follows: Enhanced Cross Screen Panel (eXP): hPXR. It is filed as in vitro ADME.
Chain of hPXR (human pregnane X receptor) (O75469 whole entry): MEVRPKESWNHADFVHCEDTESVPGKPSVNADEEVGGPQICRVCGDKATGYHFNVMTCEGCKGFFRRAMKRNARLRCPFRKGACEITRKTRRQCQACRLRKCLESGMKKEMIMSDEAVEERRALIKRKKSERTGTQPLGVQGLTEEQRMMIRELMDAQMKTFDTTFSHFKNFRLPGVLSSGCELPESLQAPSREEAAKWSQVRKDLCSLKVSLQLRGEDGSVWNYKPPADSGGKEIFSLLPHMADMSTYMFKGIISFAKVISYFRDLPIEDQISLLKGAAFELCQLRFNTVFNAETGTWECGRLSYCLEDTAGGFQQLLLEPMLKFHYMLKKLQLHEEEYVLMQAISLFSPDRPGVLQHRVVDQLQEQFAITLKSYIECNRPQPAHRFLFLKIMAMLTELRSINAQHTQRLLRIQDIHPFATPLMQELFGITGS
The test system of assay [4] is P. falciparum Pf3D70087/N9. The assay is described as follows: In vivo efficacy, standard 4-day test in humanized mouse model of P. falciparum malaria. The arrangement: species or system NSG mice engrafted with human erythrocytes. To be noted: 50 mg/kg orally, once a day for 4 days, from day 3 after infection; by the seventh day.
From the text: NOD scid gamma (NSG) mice were intravenously engrafted with human red blood cells (hRBCs) daily until the percentage of hRBCs reached ~50%, at which point the mice were infected with 2 × 10^7 P. falciparum–infected erythrocytes.
Peripheral blood from P. falciparum–infected mice was stained with TER-119-phycoerythrin (marker of murine erythrocytes) and SYTO-16 (nucleic acid dye) and then analyzed by flow cytometry (FACSCalibur, BD).
Plasmodium falciparum-infected erythrocytes (P. falciparum Pf3D70087/N9).
The mice were obtained from Charles River Labs, bred specifically for
research and certified pathogen free.
NSG mice were engrafted daily with human red blood cells intravenously injected in a final
volume of 0.7 ml (50% hematocrit). Mice were engrafted during two weeks prior to P. falciparum
infection, mice achieve around 60% of human red blood cells in mice peripheral blood.
P. falciparum infections were performed by intravenous inoculation. All mice were randomly
assigned to their corresponding treatment.
mg/kg per day for four consecutive days. […] In all cases, parasitemia was assessed in samples from peripheral blood obtained at days 3, 4, 5, 6, and 7 after infection. Fresh samples of peripheral blood from P. falciparum-infected mice were stained with TER-119-Phycoerythrine (marker of murine erythrocytes) and SYTO-16 (nucleic acid dye) and then analyzed by flow cytometry (FACSCalibur, BD).
The test system of the next assay is P. falciparum. To be noted: several P. falciparum drug-sensitive and drug-resistant strains; earlier study; read-out: IC50 (median inhibitory concentration); cited from earlier work.

As to `[C-]#[N+][C@]1(C)CC[C@H]2[C@@H]([C@@H](C(C)C)CC[C@]2(C)[N+]#[C-])[C@H]1O` [MED6-189], the IC50 was 15 nM in assay [1] (3D7 Parental, drug-sensitive parental line); 13 nM in assay [1] (Plasmodium falciparum, 3D7, 3D7 Clone (drug sensitive)); roughly 14 nM in assay [1] (Plasmodium falciparum, 3D7, 3D7 Parental, drug-sensitive parental line); 136 ± 56 nM in assay [2]; 28 µM with HEK293; 7400 nM in assay [3]. For the same molecule, the IC50 in the assay with P. falciparum is less than 50 nM. In assay [4], the “reduction in parasitemia in the peripheral blood” value is greater than 90%.
